Data: patent US9458153B2, “Dihydroquinolizinones for the treatment and prophylaxis of hepatitis B virus infection” (Hoffmann-La Roche Inc., priority 2014, dated 2016)

Experiments:
HBsAg = HBsAg assay (chemiluminescence immunoassay of secreted HBsAg in HepG2.2.15 culture supernatant); type: cell-based, HBV; conditions: HepG2.2.15 cells, CLIA kit
Summary of the method: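 HepG2.2.15 cells, which constitutively express HBV, were seeded in duplicate and treated with three-fold serial compound dilutions at 1% DMSO final. Secreted HBsAg in culture supernatant was measured semi-quantitatively by chemiluminescence immunoassay. IC50 was extrapolated from dose-response curves.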

HBV DNA = HBV DNA assay (real-time qPCR/TaqMan of extracellular HBV DNA copy number, HepG2.2.15 cells); type: cell-based; conditions: Hepatitis B virus, HepG2.2.15, 144 h, Anti HBV DNA production activity in HepG2.2.15 cells; supernatant collected six days after initial administration
Method: HepG2.2.15 cells (Acs et al. Proc Natl Acad Sci USA, 84, (1987), 4641-4), a constitutively HBV-expressing cell line were cultured in DMEM+Glutamax-I medium (Invitrogen, Carlsbad, Calif., USA), supplemented with 10% fetal bovine serum (Invitrogen) and G418 (Invitrogen) at a final concentration of 200 mg/L and maintained in 5% CO2 at 37° C.
The assay employs real-time qPCR (TaqMan) to directly measure extracellular HBV DNA copy number. HepG2.2.15 cells were plated in 96-well microtiter plates. Only the interior wells were utilized to reduce “edge effects” observed during cell culture, the exterior wells were filled with complete medium to help minimize sample evaporation. On the following day, the HepG2.2.15 cells were washed and the medium was replaced with complete medium containing various concentrations of a test compound in triplicate. 3TC was used as the positive control, while media alone was added to cells as a negative control (virus control, VC). Three days later, the culture medium was replaced with fresh medium containing the appropriately diluted drug. Six days following the initial administration of the test compound, the cell culture supernatant was collected, treated with pronase and then used in a real-time qPCR/TaqMan assay to determine HBV DNA copy numbers. Antiviral activity was calculated from the reduction in HBV DNA levels (IC50).
The compounds of the present invention were tested for their capacity to inhibit HBV DNA as described herein.

[1] = HBsAg secretion reduced by 50% vs no drug control

| SMILES | IC50 (HBsAg; [1]) [nM] | IC50 (HBV DNA) [nM] | IC50 (HBsAg; Hepatitis B virus, HepG2.2.15, HBsAg secretion reduced by 50% vs no drug control) [nM] |
| --- | --- | --- | --- |
| CCC1Cc2cc(OCC(F)(F)F)c(OC)cc2-c2cc(=O)c(C(=O)O)cn21 (single isomer, unassigned; (+)) [Example 11, (+)-6-ethyl-10-methoxy-2-oxo-9-(2,2,2-trifluoroethoxy)-6,7-dihydrobenzo[a]quinolizine-3-carboxylic acid] | 17 | 4 |  |
| CCCOc1cc2c(cc1OC)-c1cc(=O)c(C(=O)O)cn1C(CC)C2 (single isomer, unassigned; (+)) [Example 79, (+)-6-ethyl-10-methoxy-2-oxo-9-propoxyl-6,7-dihydrobenzo[a]quinolizine-3-carboxylic acid] | 4 | 2 |  |
| COc1cc2c(cc1OC)-c1cc(=O)c(C(=O)O)cn1C(C(C)C)C2 (single isomer, unassigned; (+)) [Example 99, (+)-6-isopropyl-9,10-dimethoxy-2-oxo-6,7-dihydrobenzo[a]quinolizine-3-carboxylic acid] | 16 | 3 |  |
| COCCOc1cc2c(cc1Cl)-c1cc(=O)c(C(=O)O)cn1C(C(C)C)C2 (single isomer, unassigned; (+)) [Example 108, (+)-10-chloro-6-isopropyl-9-(2-methoxyethoxy)-2-oxo-6,7-dihydrobenzo[a]quinolizine-3-carboxylic acid] | 3 | 2 |  |
| COCCCOc1cc2c(cc1Cl)-c1cc(=O)c(C(=O)O)cn1C(C(C)C)C2 (single isomer, unassigned; (+)) [Example 121, (+)-10-chloro-6-isopropyl-9-(3-methoxypropoxy)-2-oxo-6,7-dihydrobenzo[a]quinolizine-3-carboxylic acid] | 2 | < 0.1 |  |
| COCCCOc1cc2c(cc1OC)-c1cc(=O)c(C(=O)O)cn1C(C(C)C)C2 (single isomer, unassigned; (+)) [Example 124, (+)-10-methoxy-6-isopropyl-9-(3-methoxypropoxy)-2-oxo-6,7-dihydrobenzo[a]quinolizine-3-carboxylic acid] | 2 | < 0.1 |  |
| COc1cc2c(cc1OCCN1CCOCC1)CC(C(C)(C)C)n1cc(C(=O)O)c(=O)cc1-2 (single isomer, unassigned; (+)) [Example 190, (+)-6-tert-butyl-10-methoxy-9-(2-morpholinoethoxy)-2-oxo-6,7-dihydrobenzo[a]quinolizine-3-carboxylic acid] | 6 | 2 |  |
| COCCCOc1cc2c(cc1Cl)-c1cc(=O)c(C(=O)O)cn1C(C1(C)CC1)C2 (single isomer, unassigned; (+)) [Example 206, (+)-10-chloro-9-(3-methoxypropoxy)-6-(1-methylcyclopropyl)-2-oxo-6,7-dihydrobenzo[a]quinolizine-3-carboxylic acid] | 1 | 0.1 |  |
| COCCCOc1cc2c(cc1OC)-c1cc(=O)c(C(=O)O)cn1C(C1(C)CC1)C2 (single isomer, unassigned; (+)) [Example 209, (+)-10-methoxy-9-(3-methoxypropoxy)-6-(1-methylcyclopropyl)-2-oxo-6,7-dihydrobenzo[a]quinolizine-3-carboxylic acid] | 1 | 0.3 |  |
| CCOc1cc2c(cc1Cl)-c1cc(=O)c(C(=O)O)cn1C(CC)C2 (single isomer, unassigned; (-)) [Example 119, (−)-10-chloro-9-ethoxy-6-ethyl-2-oxo-6,7-dihydrobenzo[a]quinolizine-3-carboxylic acid] | 330 | 2 |  |
| CCOc1cc2c(cc1OCC)-c1cc(=O)c(C(=O)O)cn1C(CC)C2 (stereo not shown) [Example 5, 9,10-diethoxy-6-ethyl-2-oxo-6,7-dihydrobenzo[a]quinolizine-3-carboxylic acid] | 18 | 9 |  |
| CCC1Cc2cc(OCC3CC3)c(OC)cc2-c2cc(=O)c(C(=O)O)cn21 (stereo not shown) [Example 30, 9-(cyclopropylmethoxy)-6-ethyl-10-methoxy-2-oxo-6,7-dihydrobenzo[a]quinolizine-3-carboxylic acid] | 24 | 2 |  |
| CCC1Cc2cc(OCC(C)C)c(OC)cc2-c2cc(=O)c(C(=O)O)cn21 (stereo not shown) [Example 33, 6-ethyl-9-isobutoxy-10-methoxy-2-oxo-6,7-dihydrobenzo[a]quinolizine-3-carboxylic acid] | 8 | 3 |  |
| CCOc1cc2c(cc1OCC)-c1cc(=O)c(C(=O)O)cn1CC2 [Example 76, 9,10-diethoxy-2-oxo-6,7-dihydrobenzo[a]quinolizine-3-carboxylic acid] |  | 130 | 350 |
